# System: FaDu tumor
# Test: In vivo radiosensitization therapy of FaDu tumor-bearing NuNu mice
# Conditions: bi-flank FaDu tumor-bearing NuNu mice, single chemical dose (20% of MTD) followed by single 10 Gy external beam radiotherapy
# Description: In very brief, the evaluation of radiosensitization potential of IAZA using a single chemical dose (20% of the maximum tolerated dose; MTD) and a single radiation dose (10 Gy) was done in ‘bi-flank FaDu tumor-bearing NuNu mice was done. Benefits of IAZA-bestowed radiosensitization therapy effects were compared with the conventional radiotherapy alone (a single 10 Gy dose).
# FIGS. 28 and 29 depict IN VIVO RADIOSENSITIZATION THERAPY OF FaDu TUMOR BEARING NU-NU MICE USING A SINGLE CHEMICAL DOSE OF IAZA (20% of MTD) AND 10 Gy RADIATION DOSE (Green stain indicates the hypoxic region in tumor)
# [1] = compared with radiotherapy alone
smiles,measurement,setting,value
O=[N+]([O-])c1nccn1[C@@H]1O[C@H](C[125I])[C@@H](O)[C@@H]1O [IAZA],morbidity,,no morbidity
same,hypoxic content of the tumor,[1],Reduction in hypoxic content of the tumor
same,tumor size,[1],tumor size reduction
